Values after ≈ are worked out from the molar mass of the structure shown.
Assays:
Platelet aggregation = Platelet aggregation inhibiting activity in vitro (ADP-induced, rabbit platelet-rich plasma); type: cell-based, rabbits (Japanese native white male); settings: Oryctolagus cuniculus, rabbit PRP, ADP 10 μM, 37° C., minimum concentration at which inhibition exceeds 50%, read-out: Platelet aggregation inhibitory activity (IC50)
Protocol: The platelet aggregation inhibiting activity in vitro of each of the text compounds was assayed by using rabbits. Japanese native white male rabbits having a body weight of 2.5 to 3.5 kg were used. Blood was taken from the ear vein of the animals maintaining the 3.8% trisodium citrate/blood ratio at 1:9. The blood was centrifuged at 1,000 rpm for 10 minutes, and the upper layer was separated as PRP (platelet-rich plasma). The lower layer was further centrifuged at 2,800 rpm for 10 minutes. It separated into two layers. The upper layer was separated as PPP (platelet-poor plasma). The number of platelets was adjusted to 6×10^5 /microliter by dilution with PPP. Each of the test compounds was added in an amount of 25 microliters to 250 microliters of PRP after adjustment, and the mixture was subjected to preincubation at 37° C. for 2 minutes. Then ADP was added so that its final concentration was 10 μM, and variations in transmittance were recorded by using an agrigometer. The test compound was used after it was dissolved in ethanol to a concentration of 10 mg/ml and then serially diluted with phosphate buffer (pH 7.4). The percent inhibition of aggregation was calculated in accordance with the following equation. [formula] where
To is the transmittance of the system to which the test compound was not added, and
T is the transmittance of the system to which the test compound was added.
The minimum concentration of the compound at which the percent inhibition exceeds 50% is shown as IC50.

[1] = tested on: liver cell necrosis induced by carbon tetrachloride; assay: Effect (in vivo) on liver cell necrosis induced by carbon tetrachloride; inhibition of plasma GPT activity increase; parameters: species or system SD-strain male rats; settings: five administrations, 24 hours after CCl4 s.c., rat
Protocol: Effect (in vivo) on liver cell necrosis induced by carbon tetrachloride
Carbon tetrachloride and each of the test compounds were administered to SD-strain male rats (6 weeks old, body weight 170 to 200 g) by the following procedure. Blood was taken from the animals, and glutamic acid-pyruvic acid transferase (GPT) activity as an index of liver injury was measured by the ultraviolet absorbance measuring method (rate-optimum standard method), and the effect of the test compound was evaluated.
The rats were used in groups each consisting of 8 to 36 rats. The test compound was used as an aqueous 0.5% Tween 80-2.5% ethanol solution. […] The test compound was administered five times in total, i.e. 30 minutes before administration of carbon tetrachloride and 1, 2, 8 and 18 hours after administration of carbon tetrachloride. The carbon tetrachloride was subcutaneously administered as a 50% olive oil solution at a rate of […] of body weight (6670 mg/kg body weight as carbon tetrachloride). Before administration of carbon tetrachloride, the animals had been caused to abstain from food for about 18 hours.
Twenty-four hours after the administration of carbon tetrachloride, the rats were anesthetized with ether. Blood was drawn from the abdominal artery of the animals, and left to stand at room temperature for 1 hour and then centrifuged at 3,000 rpm for 15 minutes. The supernatant was used as a serum sample, and the GPT activity was measured.
The percent inhibition of the test compound on the increase of the plasma GPT activity increase by CCl4 was calculated in accordance with the following equation. [formula]

IC50 (Platelet aggregation) | SMILES | Percent inhibition of the plasma GPT activity ([1]; 1.0 mg/kg p.o.) | Percent inhibition of the plasma GPT activity ([1]; 3.0 mg/kg p.o.) | Percent inhibition of the plasma GPT activity ([1]; 0.3 mg/kg p.o.)
0.37 µg/mL (≈ 1.02 µM) | CCCCC(C)(O)C/C=C/[C@@H]1[C@H]2CC(CCCCC(=O)O)=C[C@H]2C[C@H]1O (stereo partly shown) [15-Deoxy-16-hydroxy-16-methylisocarbacyclin] | – | – | –
407 µg/mL (≈ 932 µM) | CCCC[C@H](C)C[C@H](O)/C=C/[C@@H]1[C@H]2CC(CCCCC(=O)OCC(=O)O)=C[C@H]2C[C@H]1O [17(S),20-dimethylisocarbacyclin carboxymethyl ester] | 44% | 39% | –
0.004 µg/mL (≈ 0.0113 µM) | CCCCC[C@H](O)/C=C/[C@@H]1[C@H]2C/C(=C/CCCC(=O)O)O[C@H]2C[C@H]1O [Prostaglandin I2, reference compound] | – | – | –
> 1000 µg/mL | CCCC[C@H](C)C[C@H](O)/C=C/[C@@H]1[C@H]2CC(CCCCC(=O)N[C@@H](CC(C)C)C(=O)O)=C[C@H]2C[C@H]1O [17(S),20-Dimethylisocarbacyclin L-leucine amide] | – | – | 33%

Source: patent publication US5175338A, “Isocarbacyclin derivatives and their pharmaceutically acceptable salts thereof” (Teijin Limited, priority 1986, dated 1992)
